Assay results taken from the NIST ThermoML archive (doi:10.1016/j.jct.2006.01.008).

Assay: mn = molality of the nth substance listed, in mol/kg
Settings: Liquid

O=[N+]([O-])[O-].[Li+] [lithium nitrate] + CO
Settings | mass density [kg/m3]
348.25 K, 312 kPa, m1 = 3.614 | 887.13
348.25 K, 318 kPa, m1 = 1.803 | 819.91
348.25 K, 325 kPa, m1 = 0.5393 | 764.85
348.25 K, 4991 kPa, m1 = 0.5393 | 770.52
348.25 K, 5006 kPa, m1 = 3.614 | 891.37
348.25 K, 5009 kPa, m1 = 1.803 | 824.85
348.25 K, 9982 kPa, m1 = 3.614 | 895.64
348.25 K, 10005 kPa, m1 = 1.803 | 829.8
348.25 K, 10014 kPa, m1 = 0.5393 | 776.21
348.25 K, 14983 kPa, m1 = 1.803 | 834.47
348.25 K, 14987 kPa, m1 = 0.5393 | 781.48
348.25 K, 15007 kPa, m1 = 3.614 | 899.77
348.25 K, 19991 kPa, m1 = 1.803 | 838.93
348.25 K, 19995 kPa, m1 = 3.614 | 903.68
348.25 K, 20004 kPa, m1 = 0.5393 | 786.51
348.25 K, 24984 kPa, m1 = 1.803 | 843.17
348.25 K, 24990 kPa, m1 = 3.614 | 907.45
348.25 K, 25002 kPa, m1 = 0.5393 | 791.23
348.25 K, 29989 kPa, m1 = 0.5393 | 795.72
348.25 K, 29996 kPa, m1 = 3.614 | 911.08
348.25 K, 30007 kPa, m1 = 1.803 | 847.26
348.25 K, 34987 kPa, m1 = 0.5393 | 800.01
348.25 K, 34994 kPa, m1 = 3.614 | 914.59
348.25 K, 34996 kPa, m1 = 1.803 | 851.13
348.25 K, 39988 kPa, m1 = 0.5393 | 804.12
348.25 K, 39995 kPa, m1 = 1.803 | 854.88
348.25 K, 40008 kPa, m1 = 3.614 | 917.97
373.15 K, 572 kPa, m1 = 0.1551 | 719.83
373.15 K, 578 kPa, m1 = 0.8904 | 757.09
373.15 K, 627 kPa, m1 = 0.2943 | 727.47
373.15 K, 4896 kPa, m1 = 0.1551 | 726.23
373.15 K, 4896 kPa, m1 = 0.8904 | 762.68
373.15 K, 5038 kPa, m1 = 0.2943 | 733.83
373.15 K, 10365 kPa, m1 = 0.2943 | 741.1
373.15 K, 10738 kPa, m1 = 0.1551 | 734.38
373.15 K, 10738 kPa, m1 = 0.8904 | 769.86
373.15 K, 15238 kPa, m1 = 0.1551 | 740.28
373.15 K, 15238 kPa, m1 = 0.8904 | 775.11
373.15 K, 15875 kPa, m1 = 0.2943 | 748.15
373.15 K, 20369 kPa, m1 = 0.2943 | 753.53
373.15 K, 21035 kPa, m1 = 0.1551 | 747.38
373.15 K, 21035 kPa, m1 = 0.8904 | 781.49
373.15 K, 25124 kPa, m1 = 0.1551 | 752.05
373.15 K, 25124 kPa, m1 = 0.8904 | 785.73
373.15 K, 25852 kPa, m1 = 0.2943 | 759.66
373.15 K, 30147 kPa, m1 = 0.2943 | 764.13
373.15 K, 30418 kPa, m1 = 0.1551 | 757.68
373.15 K, 30418 kPa, m1 = 0.8904 | 790.91
373.15 K, 35753 kPa, m1 = 0.2943 | 769.52
373.15 K, 35984 kPa, m1 = 0.1551 | 763.11
373.15 K, 35984 kPa, m1 = 0.8904 | 795.98
373.15 K, 39901 kPa, m1 = 0.1551 | 766.61
373.15 K, 39901 kPa, m1 = 0.8904 | 799.31
373.15 K, 39951 kPa, m1 = 0.2943 | 773.22
373.27 K, 528 kPa, m1 = 3.614 | 865.29
373.27 K, 532 kPa, m1 = 1.803 | 796.7
373.27 K, 4988 kPa, m1 = 1.803 | 802.12
373.27 K, 5015 kPa, m1 = 3.614 | 869.9
373.27 K, 9996 kPa, m1 = 1.803 | 807.82
373.27 K, 10010 kPa, m1 = 3.614 | 874.76
373.27 K, 14985 kPa, m1 = 1.803 | 813.14
373.27 K, 14994 kPa, m1 = 3.614 | 879.35
373.27 K, 19990 kPa, m1 = 1.803 | 818.17
373.27 K, 19991 kPa, m1 = 3.614 | 883.74
373.27 K, 24989 kPa, m1 = 1.803 | 822.92
373.27 K, 24995 kPa, m1 = 3.614 | 887.93
373.27 K, 29999 kPa, m1 = 3.614 | 891.95
373.27 K, 30013 kPa, m1 = 1.803 | 827.46
373.27 K, 34987 kPa, m1 = 3.614 | 895.79
373.27 K, 35004 kPa, m1 = 1.803 | 831.77
373.27 K, 39994 kPa, m1 = 3.614 | 899.5
373.27 K, 39997 kPa, m1 = 1.803 | 835.89
373.28 K, 542 kPa, m1 = 0.5393 | 739.72
373.28 K, 4986 kPa, m1 = 0.5393 | 746.09
373.28 K, 9996 kPa, m1 = 0.5393 | 752.7
373.28 K, 14984 kPa, m1 = 0.5393 | 758.8
373.28 K, 20003 kPa, m1 = 0.5393 | 764.52
373.28 K, 24985 kPa, m1 = 0.5393 | 769.85
373.28 K, 29993 kPa, m1 = 0.5393 | 774.9
373.28 K, 35001 kPa, m1 = 0.5393 | 779.7
373.28 K, 39997 kPa, m1 = 0.5393 | 784.24
398.15 K, 1035 kPa, m1 = 0.2943 | 699.13
398.15 K, 1138 kPa, m1 = 0.8904 | 730.97
398.15 K, 1432 kPa, m1 = 0.1551 | 691.82
398.15 K, 5023 kPa, m1 = 0.8904 | 736.91
398.15 K, 5126 kPa, m1 = 0.1551 | 698.39
398.15 K, 5236 kPa, m1 = 0.2943 | 706.42
398.15 K, 10058 kPa, m1 = 0.8904 | 744.23
398.15 K, 10628 kPa, m1 = 0.1551 | 707.59
398.15 K, 10698 kPa, m1 = 0.2943 | 715.31
398.15 K, 15234 kPa, m1 = 0.1551 | 714.77
398.15 K, 15573 kPa, m1 = 0.8904 | 751.75
398.15 K, 15874 kPa, m1 = 0.2943 | 723.14
398.15 K, 20035 kPa, m1 = 0.8904 | 757.46
398.15 K, 20452 kPa, m1 = 0.2943 | 729.57
398.15 K, 21035 kPa, m1 = 0.1551 | 723.12
398.15 K, 25069 kPa, m1 = 0.8904 | 763.49
398.15 K, 25235 kPa, m1 = 0.2943 | 735.81
398.15 K, 26078 kPa, m1 = 0.1551 | 729.75
398.15 K, 30027 kPa, m1 = 0.1551 | 734.55
398.15 K, 30047 kPa, m1 = 0.8904 | 769.04
398.15 K, 30385 kPa, m1 = 0.2943 | 741.96
398.15 K, 35256 kPa, m1 = 0.2943 | 747.26
398.15 K, 35845 kPa, m1 = 0.8904 | 774.96
398.15 K, 35941 kPa, m1 = 0.1551 | 741.06
398.15 K, 39127 kPa, m1 = 0.2943 | 751.09
398.15 K, 39254 kPa, m1 = 0.8904 | 778.18
398.15 K, 39789 kPa, m1 = 0.1551 | 744.86
398.28 K, 900 kPa, m1 = 3.614 | 842.05
398.28 K, 4994 kPa, m1 = 3.614 | 846.92
398.28 K, 10001 kPa, m1 = 3.614 | 852.52
398.28 K, 14988 kPa, m1 = 3.614 | 857.76
398.28 K, 19997 kPa, m1 = 3.614 | 862.72
398.28 K, 24994 kPa, m1 = 3.614 | 867.42
398.28 K, 29993 kPa, m1 = 3.614 | 871.89
398.28 K, 34991 kPa, m1 = 3.614 | 876.17
398.28 K, 39987 kPa, m1 = 3.614 | 880.27
398.29 K, 904 kPa, m1 = 0.5393 | 712.1
398.29 K, 906 kPa, m1 = 1.803 | 771.63
398.29 K, 4994 kPa, m1 = 1.803 | 777.53
398.29 K, 4996 kPa, m1 = 0.5393 | 719.24
398.29 K, 9985 kPa, m1 = 0.5393 | 727.14
398.29 K, 9986 kPa, m1 = 1.803 | 784.19
398.29 K, 14989 kPa, m1 = 1.803 | 790.36
398.29 K, 15010 kPa, m1 = 0.5393 | 734.37
398.29 K, 19986 kPa, m1 = 1.803 | 796.11
398.29 K, 20018 kPa, m1 = 0.5393 | 740.98
398.29 K, 24995 kPa, m1 = 1.803 | 801.52
398.29 K, 25002 kPa, m1 = 0.5393 | 747.09
398.29 K, 29986 kPa, m1 = 1.803 | 806.59
398.29 K, 30001 kPa, m1 = 0.5393 | 752.82
398.29 K, 34984 kPa, m1 = 0.5393 | 758.22
398.29 K, 34988 kPa, m1 = 1.803 | 811.42
398.29 K, 39996 kPa, m1 = 0.5393 | 763.34
398.29 K, 40001 kPa, m1 = 1.803 | 816.03
